One test addresses T1, PDGF-Ra (Homo sapiens, UniProt P16234).
T1 construct: host or cells: G-292 human osteosarcoma cells
The test can be described thus: Inhibitory activity against PDGF-Ra phosphorylation by PDGF-AA stimulation using G292. Format: cell-based. Particulars: for pIC50: > means inhibition at indicated concentration not more than 50%, < and << not less than 50%, read-out: PDGF (E) IC50; for PDGF (E) inhibition (%), figure in parentheses in >30( ): concentration not defined in key (presumably 30 nM); for inhibition at 0.1 µM: G292, figure in parentheses in >100( ), at 100 nM, read-out: PDGF (E) inhibition (%) at 100 nM. In short, it runs like this: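 Human osteosarcoma G-292, 0.1% FBS o/n; cpd (DMSO) 1 h 37 °C; PDGF-AA 50 ng/ml 5 min; lyse 20 min RT; PY-20 capture 4 °C o/n; anti-PDGF-Ra + HRP-GAR; OD450.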

A further test deals with T2, c-kit (Homo sapiens, UniProt P10721).
T2 construct: MO7e (human megakaryocytic leukemia cell line) which had been arrested for 20 hr; endogenous in cells; host or cells: MO7e human megakaryocytic leukemia cell line
Put plainly: Inhibitory activity against c-kit autophosphorylation (MO7e cells, h-SCF). The format is cell-based. Particulars: for pIC50: MO7e cells, h-SCF stimulation, read-out: c-kit IC50; for inhibition at 1 µM: Mo7e, figure in parentheses in −( ), at 1000 nM. In outline: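 Ligand-induced c-kit tyrosine phosphorylation is measured in MO7e cells that were quiesced 20 hr and preincubated with compound for 1 hr prior to a 5 min pulse of 50 ng/ml human SCF. Phospho-c-kit is detected by anti-phosphotyrosine capture ELISA, A450.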

Results on 29 molecules are retold here after patent US7135466B2 (Kirin Beer Kabushiki Kaisha, priority 1999, dated 2006).

pIC50: −log10 of the molar value.

T1 sequence (P16234 24-1089): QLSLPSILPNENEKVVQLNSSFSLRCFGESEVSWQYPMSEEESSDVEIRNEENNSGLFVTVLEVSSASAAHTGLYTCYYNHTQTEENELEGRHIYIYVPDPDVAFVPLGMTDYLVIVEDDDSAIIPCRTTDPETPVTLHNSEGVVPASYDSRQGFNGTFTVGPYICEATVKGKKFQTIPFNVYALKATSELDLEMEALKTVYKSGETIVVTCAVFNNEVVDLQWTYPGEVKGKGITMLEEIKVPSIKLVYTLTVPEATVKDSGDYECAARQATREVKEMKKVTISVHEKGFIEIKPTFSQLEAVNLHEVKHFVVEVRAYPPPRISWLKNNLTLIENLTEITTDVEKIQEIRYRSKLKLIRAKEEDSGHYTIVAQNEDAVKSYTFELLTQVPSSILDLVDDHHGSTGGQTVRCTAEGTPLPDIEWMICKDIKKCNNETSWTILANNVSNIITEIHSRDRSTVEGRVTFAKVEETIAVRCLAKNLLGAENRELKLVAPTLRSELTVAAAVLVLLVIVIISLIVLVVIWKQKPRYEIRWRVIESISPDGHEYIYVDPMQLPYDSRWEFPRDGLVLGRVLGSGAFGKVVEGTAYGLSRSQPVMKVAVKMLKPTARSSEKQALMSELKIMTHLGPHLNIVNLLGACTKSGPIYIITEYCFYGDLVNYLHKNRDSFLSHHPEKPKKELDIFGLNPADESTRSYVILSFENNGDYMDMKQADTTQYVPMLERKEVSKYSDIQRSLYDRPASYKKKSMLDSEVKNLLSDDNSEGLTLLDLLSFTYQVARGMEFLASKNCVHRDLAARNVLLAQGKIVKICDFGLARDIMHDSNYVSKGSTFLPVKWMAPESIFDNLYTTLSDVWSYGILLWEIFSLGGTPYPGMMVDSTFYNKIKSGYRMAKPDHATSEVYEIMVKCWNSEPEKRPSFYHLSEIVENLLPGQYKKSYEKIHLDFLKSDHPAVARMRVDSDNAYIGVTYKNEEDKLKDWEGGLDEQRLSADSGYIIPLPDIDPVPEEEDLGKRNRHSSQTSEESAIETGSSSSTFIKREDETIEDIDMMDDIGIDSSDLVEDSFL
T2 sequence (P10721 26-976): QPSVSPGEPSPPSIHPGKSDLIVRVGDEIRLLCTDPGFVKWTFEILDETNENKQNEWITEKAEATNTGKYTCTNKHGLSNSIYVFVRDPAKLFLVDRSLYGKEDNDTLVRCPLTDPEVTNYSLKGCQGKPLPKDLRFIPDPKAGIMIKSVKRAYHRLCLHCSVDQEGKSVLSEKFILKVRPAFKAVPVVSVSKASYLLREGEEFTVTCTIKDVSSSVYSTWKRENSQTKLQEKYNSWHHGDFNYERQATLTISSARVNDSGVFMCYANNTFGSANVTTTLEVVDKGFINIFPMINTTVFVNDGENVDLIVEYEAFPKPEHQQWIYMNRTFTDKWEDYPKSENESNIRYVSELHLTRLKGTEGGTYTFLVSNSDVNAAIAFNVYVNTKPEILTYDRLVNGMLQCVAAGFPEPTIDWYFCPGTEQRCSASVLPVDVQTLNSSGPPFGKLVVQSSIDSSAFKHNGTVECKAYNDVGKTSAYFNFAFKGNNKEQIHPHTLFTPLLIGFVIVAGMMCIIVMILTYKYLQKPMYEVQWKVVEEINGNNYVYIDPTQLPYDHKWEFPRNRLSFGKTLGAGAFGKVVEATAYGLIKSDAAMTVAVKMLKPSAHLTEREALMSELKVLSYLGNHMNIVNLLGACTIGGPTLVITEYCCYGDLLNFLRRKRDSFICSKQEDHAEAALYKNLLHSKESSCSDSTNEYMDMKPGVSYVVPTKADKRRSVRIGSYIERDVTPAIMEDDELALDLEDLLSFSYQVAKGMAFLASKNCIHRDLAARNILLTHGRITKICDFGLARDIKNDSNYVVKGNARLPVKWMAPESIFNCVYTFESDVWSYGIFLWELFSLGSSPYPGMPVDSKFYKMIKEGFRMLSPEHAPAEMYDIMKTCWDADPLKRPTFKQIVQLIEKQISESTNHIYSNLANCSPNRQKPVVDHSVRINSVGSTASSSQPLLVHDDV

Take `COc1cc2nccc(Oc3ccc(NCCOc4ccccc4OC)cc3C)c2cc1OC` [Example 880, N-{4-[(6,7-Dimethoxy-4-quinolyl)oxy]-3-methylphenyl}-N-[2-(2-methoxyphenoxy)ethyl]amine]: the negative logarithm of the IC50 (pIC50) (in general, the negative decadic logarithm of the IC50, by convention in mol/L) at PDGF-Ra is 7.80; at c-kit it was 6.83.

With `COc1cc2nccc(Oc3ccc(NCCOc4c(C)cccc4C)cc3C)c2cc1OC` [Example 881, N-{4-[(6,7-Dimethoxy-4-quinolyl)oxy]-3-methylphenyl}-N-[2-(2,6dimethylphenoxy)ethyl]amine], at PDGF-Ra, the pIC50 was less than 7.52 and the “PDGF (E) inhibition (%), figure in parentheses in >30( )” value came to 29%. Moreover, the pIC50 at c-kit was 6.46.

`COc1cc2nccc(Oc3ccc(NCCOc4c(OC)cccc4OC)cc3C)c2cc1OC` [Example 882, N-[2-(2 6-Dimethoxyphenoxy)ethyl]-N-{4-[(6,7-dimethoxy-4-quinolyl)oxy]-3-methylphenyl}amine]: the pIC50 at PDGF-Ra is 7.64. For the same molecule, the inhibition (commonly the share of the control response that was lost under treatment) at 1 µM on c-kit came out at 36%.

In the case of `COc1cc2nccc(Oc3ccc(NCCOc4c(F)cccc4F)cc3C)c2cc1OC` [Example 883, N-[2-(2,6-Difluorophenoxy)ethyl]-N-{4-[(6,7-dimethoxy-4-quinolyl)oxy]-3-methylphenyl}amine], at PDGF-Ra, the pIC50 was less than 7.52 and the “PDGF (E) inhibition (%), figure in parentheses in >30( )” value is recorded as >30(30) %. Further, on c-kit, the negative logarithm of the IC50 (pIC50) was 6.28.

As for `COc1cc2nccc(Oc3ccc(NCCOc4c(OC)cccc4OC)c(C)c3C)c2cc1OC` [Example 884, N-[2-(2,6-Dimethoxyphenoxy)ethyl]-N-{4-[(6,7-dimethoxy-4-quinolyl)oxy]-2,3-dimethylphenyl}amine], on PDGF-Ra, the negative-log IC50 (pIC50) is 7.36. The inhibition at 1 µM at c-kit turned out to be 30%.

On to `COc1cc2nccc(Oc3ccc(NCCCOc4ccccc4)cc3)c2cc1OC` [Example 885, N-{4-[(6,7-Dimethoxy-4-quinolyl)oxy]phenyl}-N-(3-phenoxypropyl)amine], for which the pIC50 was more than 8.52 on PDGF-Ra and 6.38 on c-kit.

On to `COc1cc2nccc(Oc3cc(C)c(NCCCOc4ccccc4)cc3C)c2cc1OC` [Example 886, N-{4-[(6,7-Dimethoxy-4-quinolyl)oxy]-2 5-dimethylphenyl}-N-(3-phenoxypropyl)amine], for which, on PDGF-Ra, the pIC50 was less than 7.00 and the inhibition at 0.1 µM was determined as 47%. The inhibition at 1 µM on c-kit worked out at 27%.

In the case of `COc1cc2nccc(Oc3ccc(NCCCOc4ccccc4)c(C)c3C)c2cc1OC` [Example 887, N-{4-[(6,7-Dimethoxy-4-quinolyl)oxy]-2,3-dimethylphenyl}-N-(3-phenoxypropyl)amine], the pIC50 on PDGF-Ra was 7.30. The inhibition at 1 µM at c-kit amounted to 20%.

Turning to `COc1cc2nccc(Oc3ccc(NCCCOc4ccccc4C)cc3)c2cc1OC` [Example 888, N-{4-[(6,7-Dimethoxy-4-quinolyl)oxy]phenyl}-N-[3-(2-methylphenoxy)propyl]amine], the negative logarithm of the IC50 (pIC50) is 7.92 at PDGF-Ra and 6.41 at c-kit.

For `COc1cc2nccc(Oc3cc(C)c(NCCCOc4ccccc4C)cc3C)c2cc1OC` [Example 889, N-{4-[(6,7-Dimethoxy-4-quinolyl)oxy]-2,5-dimethylphenyl}-N-[3-(2-methylphenoxy)propyl]amine], on PDGF-Ra, the negative logarithm of the IC50 (pIC50) is less than 7.00 and the inhibition at 0.1 µM came to 30%. Further, on c-kit, the inhibition at 1 µM is 28%.

Take `COc1cc2nccc(Oc3ccc(NCCCOc4ccccc4C)c(C)c3C)c2cc1OC` [Example 890, N-{4-[(6,7-Dimethoxy-4-quinolyl)oxy]-2,3-dimethylphenyl}-N-[3-(2-methylphenoxy)propyl]amine]: at PDGF-Ra, the negative-log IC50 (pIC50) was 7.02. The inhibition at 1 µM at c-kit came out at 39%.

Regarding `COc1cc2nccc(Oc3ccc(NCCCOc4ccccc4Cl)cc3)c2cc1OC` [Example 891, N-[3-(2-Chlorophenoxy)propyl]-N-{4-[(6,7-dimethoxy-4-quinolyl)oxy]phenyl}amine], the values for the pIC50 on PDGF-Ra and on c-kit were 8.15 and 6.55, respectively.

In the case of `COc1cc2nccc(Oc3cc(C)c(NCCCOc4ccccc4Cl)cc3C)c2cc1OC` [Example 892, N-[3-(2-Chlorophenoxy)propyl]-N-{4-[(6,7-dimethoxy-4-quinolyl)oxy]-2,5-dimethylphenyl}amine], on PDGF-Ra, the negative logarithm of the IC50 (pIC50) is less than 7.00 and the inhibition at 0.1 µM amounted to 25%. In addition, the inhibition at 1 µM at c-kit came out at 30%.

Consider `COc1cc2nccc(Oc3ccc(NCCCOc4ccccc4Cl)c(C)c3C)c2cc1OC` [Example 893], for which the results for the pIC50 at PDGF-Ra and at c-kit were 7.28 and 6.19, respectively.

For the molecule `COc1cc2nccc(Oc3ccc(NCCOc4c(C)cccc4C)c(C)c3C)c2cc1OC` [Example 894, N-{4-[(6,7-Dimethoxy-4-quinolyl)oxy]-2,3-dimethylphenyl}-N-[2-(2,6-dimethylphenoxy)ethyl]amine], at PDGF-Ra, the negative logarithm of the IC50 (pIC50) was less than 7.00 and the inhibition at 0.1 µM was 49%. For the same molecule, the inhibition at 1 µM at c-kit came out at 23%.

As for `COc1cc2nccc(Oc3cc(C)c(NCCOc4c(C)cccc4C)cc3C)c2cc1OC` [Example 895, N-{4-[(6,7-Dimethoxy-4-quinolyl)oxy]-2,5-dimethylphenyl}-N-[2-(2,6-dimethylphenoxy)ethyl]amine], at PDGF-Ra, the negative-log IC50 (pIC50) was less than 7.00 and the inhibition at 0.1 µM stood at 33%. Also, the inhibition at 1 µM on c-kit came to 20%.

On to `COc1cc2nccc(Oc3cc(C)c(NCCOc4c(OC)cccc4OC)cc3C)c2cc1OC` [Example 896, N-[2-(2,6-Dimethoxyphenoxy)ethyl]-N-{4-[(6,7-dimethoxy-4-quinolyl)oxy]-2,5-dimethylphenyl}amine], for which the pIC50 on PDGF-Ra is 7.02. In addition, the inhibition at 1 µM on c-kit is 31%.

In the case of `COc1cc2nccc(Oc3ccc(NC(=S)NC(=O)c4ccccc4Cl)c(F)c3)c2cc1OC` [Example 905, N-(2-Chlorobenzoyl)-N′-{4-[(6,7-dimethoxy-4-quinolyl)oxy]-2-fluorophenyl}thiourea], the pIC50 on PDGF-Ra is 8.30. The inhibition at 1 µM on c-kit turned out to be 40%.

Consider `COc1cc2nccc(Oc3ccc(NC(=S)NC(=O)c4ccccc4I)c(F)c3)c2cc1OC` [Example 908, N-{4-[(6,7-Dimethoxy-4-quinolyl)oxy]-2-fluorophenyl}-N′-(2-iodobenzoyl)thiourea], for which the results for the negative-log IC50 (pIC50) at PDGF-Ra and on c-kit were 8.05 and 6.12, respectively.

For the molecule `COc1cc2nccc(Oc3ccc(NC(=S)NC(=O)c4ccccc4I)cc3F)c2cc1OC` [Example 915, N-{4-[(6,7-Dimethoxy-4-quinolyl)oxy]-3-fluorophenyl}-N′-(2-iodobenzoyl)thiourea], the values for the pIC50 at PDGF-Ra and at c-kit were 8.05 and 6.62, respectively.

`COc1cc2nccc(Oc3ccc(NC(=S)NC(=O)c4ccccc4C(F)(F)F)cc3F)c2cc1OC` [Example 917, N-{4-[(6,7-Dimethoxy-4-quinolyl)oxy]-3-fluorophenyl}-N′-[2-(trifluoromethyl)benzoyl]thiourea]: the negative-log IC50 (pIC50) on PDGF-Ra was 6.88; on c-kit, 6.26.

With `COc1cc2nccc(Oc3ccc(NC(=S)NC(=O)c4ccccc4C)c([N+](=O)[O-])c3)c2cc1OC` [Example 925, N-{4-[(6,7-Dimethoxy-4-quinolyl)oxy]-2-nitrophenyl}-N′-(2-methylbenzoyl)thiourea], the pIC50 was 7.46 at PDGF-Ra and 6.37 at c-kit.

`COc1cc2ncnc(Oc3ccc(NC(=S)NC(=O)c4ccccc4C)cc3)c2cc1OC` [Example 927, N-{4-[(6,7-Dimethoxy-4-quinazolinyl)oxy]phenyl}-N′-(2-methylbenzoyl)thiourea]: the negative-log IC50 (pIC50) at PDGF-Ra was 8.30; at c-kit, 6.21.

Turning to `COc1cc2nccc(Oc3ccc(NC(=S)NC(=O)c4cccc(C)c4)cc3)c2cc1OC` [Example 930, N-{4-[(6,7-Dimethoxy-4-quinolyl)oxy]phenyl}-N′-(3-methylbenzoyl)thiourea], the negative-log IC50 (pIC50) on PDGF-Ra was more than 8.00; at c-kit, 6.74.

For `COc1cc2nccc(Oc3ccc(NC(=S)NC(=O)c4ccc(C)cc4)cc3)c2cc1OC` [Example 959, N-{4-[(6,7-Dimethoxy-4-quinolyl)oxy]phenyl}-N′-(4-methylbenzoyl)thiourea], the pIC50 is more than 8.00 at PDGF-Ra and 6.52 at c-kit.

Turning to `COc1cc2nccc(Oc3ccc(NC(=S)NC(=O)c4ccc(I)cc4)c(F)c3)c2cc1OC` [Example 967, N-{4-[(6,7-Dimethoxy-4-quinolyl)oxy]-2-fluorophenyl}-N′-(4-iodobenzoyl)thiourea], at PDGF-Ra, the negative-log IC50 (pIC50) was 7.70. Besides, the inhibition at 1 µM on c-kit came to 15%.

Consider `COc1cc2nccc(Oc3ccc(NC(=S)NC(=O)c4ccc5c(c4)OCO5)cc3)c2cc1OC` [Example 989, N-(1,3-Benzodioxol-5-ylcarbonyl)-N′-{4-[(6,7-dimethoxy-4-quinolyl)oxy]phenyl}thiourea], for which the negative-log IC50 (pIC50) at PDGF-Ra is 7.85; at c-kit, 6.37.

On to `COc1cc2nccc(Oc3ccc(NC(=S)NC(=O)c4ccc(-c5ccccc5)cc4)cc3F)c2cc1OC` [Example 991, N-{4-[(6,7-Dimethoxy-4-quinolyl)oxy]-3-fluorophenyl}-N′-(4-phenylbenzoyl)thiourea], for which the negative-log IC50 (pIC50) at PDGF-Ra is 7.72. For the same molecule, the inhibition at 1 µM on c-kit was found to be 20%.

On to `CCCc1ccc(C(=O)NC(=S)Nc2ccc(Oc3ccnc4cc(OC)c(OC)cc34)cc2F)cc1` [Example 994, N-{4-[(6,7-Dimethoxy-4-quinolyl)oxy]-2-fluorophenyl}-N′-(4-propylbenzoyl)thiourea], for which the pIC50 on PDGF-Ra was 7.57. The inhibition at 1 µM at c-kit was determined as 47%.
